# Reference: ChEMBL document CHEMBL5614392, “Discovery of novel N2-indazole derivatives as phosphodiesterase 4 inhibitors for the treatment of inflammatory bowel disease” (Eur J Med Chem, 2024)
# The source made the active and inactive calls. The rule behind the calls is not given here.
# Columns and labels:
# [1] = target: T1, 3',5'-cyclic-AMP phosphodiesterase 4D (Homo sapiens, UniProt Q08499); assay: Inhibition of PDE4D7 (unknown origin) using FAM-cyclic-3'5'-AMP as substrate at 10 nM incubated for 1 hrs by fluorescence polarization assay relative to control
# [2] = target: T1, 3',5'-cyclic-AMP phosphodiesterase 4D; assay: Inhibition of PDE4D7 (unknown origin) using FAM-cyclic-3'5'-AMP as substrate at 100 nM incubated for 1 hrs by fluorescence polarization assay relative to control
# [3] = target: T1, 3',5'-cyclic-AMP phosphodiesterase 4D; assay: Inhibition of PDE4D7 (unknown origin) using FAM-cyclic-3'5'-AMP as substrate incubated for 1 hrs by fluorescence polarization assay
# [4] = target: T1, 3',5'-cyclic-AMP phosphodiesterase 4D; assay: Inhibition of PDE4D7 (unknown origin) using FAM-cyclic-3'5'-AMP as substrate at 1 uM incubated for 1 hrs by fluorescence polarization assay relative to control
# [5] = Toxicity in ketamine/xylazine-induced anesthetic male C57BL/6J mouse model assessed as emetogenic potential by measuring reduction in anesthesia duration at 0.5 mg/kg, po preadministered with compound for 15 mins followed by ketamine/xylazine administration; assay type: organism-based; details: in vivo, 0.25 h
# [6] = tested on: Mus musculus; assay: Antiinflammatory activity against DSS-induced colitis C57BL/6J mouse model assessed as decrease in body weight loss at 3 mg/kg, po pretreated with DSS for 10 days followed by twice daily compound administration for 8 days starting from day 3 to day 10 and measured on day 6; assay type: functional, organism-based; details: time 4.0 day
# [7] = tested on: RAW264.7; assay: Antiinflammatory activity against mouse RAW264.7 cells assessed as inhibition of LPS-induced iNOS mRNA production at 10 uM incubated for 24 hrs by SYBR green quantitative PCR analysis; assay type: functional, cell-based
# [8] = tested on: RAW264.7; assay: Antiinflammatory activity against mouse RAW264.7 cells assessed as inhibition of LPS-induced IL-6 mRNA production at 10 uM incubated for 24 hrs by SYBR green quantitative PCR analysis; assay type: functional, cell-based
# [9] = tested on: RAW264.7; assay: Antiinflammatory activity against mouse RAW264.7 cells assessed as inhibition of LPS-induced TNF-alpha mRNA production at 10 uM incubated for 24 hrs by SYBR green quantitative PCR analysis; assay type: functional, cell-based
# [10] = tested on: Mus musculus; assay: Antiinflammatory activity against DSS-induced colitis C57BL/6J mouse model assessed as decrease in disease activity index at 3 mg/kg, po pretreated with DSS for 10 days followed by twice daily compound administration for 8 days starting from day 3 to day 10 relative to control; assay type: functional, organism-based; details: time 8.0 day
# [11] = tested on: Mus musculus; assay: Antiinflammatory activity against DSS-induced colitis C57BL/6J mouse model assessed as decrease in body weight loss at 3 mg/kg, po pretreated with DSS for 10 days followed by twice daily compound administration for 8 days starting from day 3 to day 10 relative to control; assay type: functional; set-up: scale not given: the % may be the effect or the level left; details: time 8 day
# [12] = tested on: Mus musculus; assay: Antiinflammatory activity against DSS-induced colitis C57BL/6J mouse model assessed as increase in colon length at 3 mg/kg, po pretreated with DSS for 10 days followed by twice daily compound administration for 8 days starting from day 3 to day 10; assay type: functional, organism-based; details: time 8.0 day
# [13] = tested on: HT-22; assay: Cytotoxicity against mouse HT-22 cells at 10 to 30 uM; assay type: toxicity, cell-based; details: ht-22, 30 µM, dose 10-30 µM
# [14] = Selectivity ratio of IC50 for PDE3B (unknown origin) to IC50 for PDE4D7 (unknown origin)
# [15] = Selectivity ratio of IC50 for PDE8A (unknown origin) to IC50 for PDE4D7 (unknown origin)
# [16] = target: High affinity cAMP-specific and IBMX-insensitive 3',5'-cyclic phosphodiesterase 8A (Homo sapiens) (UniProt O60658); assay: Inhibition of PDE8A (unknown origin) using FAM-cyclic-3'5'-AMP as substrate at 10 uM incubated for 1 hrs by fluorescence polarization assay relative to control
# [17] = Acute toxicity in male C57BL/6J mouse assessed as animal death at 0.1 g/Kg, po measured within 10 to 24 hrs; assay type: organism-based; details: in vivo, 100 mg/kg, time 10-24 hrs
# [18] = target: High affinity cGMP-specific 3',5'-cyclic phosphodiesterase 9A (Homo sapiens) (UniProt O76083); assay: Inhibition of PDE9A (unknown origin) using FAM-cyclic-3'5'-AMP as substrate at 10 uM incubated for 1 hrs by fluorescence polarization assay relative to control
# [19] = Selectivity ratio of IC50 for PDE9A (unknown origin) to IC50 for PDE4D7 (unknown origin)
# [20] = Selectivity ratio of IC50 for PDE7A (unknown origin) to IC50 for PDE4D7 (unknown origin)
# [21] = target: High affinity 3',5'-cyclic-AMP phosphodiesterase 7A (Homo sapiens) (UniProt Q13946); assay: Inhibition of PDE7A (unknown origin) using FAM-cyclic-3'5'-AMP as substrate at 10 uM incubated for 1 hrs by fluorescence polarization assay relative to control
# [22] = target: cGMP-inhibited 3',5'-cyclic phosphodiesterase 3B (Homo sapiens) (UniProt Q13370); assay: Inhibition of PDE3B (unknown origin) using FAM-cyclic-3'5'-AMP as substrate at 10 uM incubated for 1 hrs by fluorescence polarization assay relative to control
# [23] = Oral bioavailability in male C57BL/6J mouse; assay type: ADME, organism-based; details: in vivo
# [24] = Acute toxicity in po dosed male C57BL/6J mouse assessed as lethal dose measured after 14 days; assay type: organism-based; details: in vivo, time 14 day
# [25] = Toxicity in ketamine/xylazine-induced anesthetic male C57BL/6J mouse model assessed as emetogenic potential by measuring reduction in anesthesia duration at 5 to 10 mg/kg, po preadministered with compound for 15 mins followed by ketamine/xylazine administration; assay type: organism-based; details: in vivo, 0.25 h, dose 5-10 mg/kg
# [26] = target: T1, 3',5'-cyclic-AMP phosphodiesterase 4D; assay: Potency index, ratio of TPA16 IC50 to test compound IC50 for inhibition of PDE4D7 (unknown origin) using FAM-cyclic-3'5'-AMP as substrate incubated for 1 hrs by fluorescence polarization assay
# [27] = target: T1, 3',5'-cyclic-AMP phosphodiesterase 4D; assay: Inhibition of human recombinant PDE4D using radioactively labelled cAMP and cAMP as substrate incubated for 1 hrs by luminescence based analysis
# [28] = target: Phosphodiesterase 4 (Homo sapiens, UniProt P27815+Q08499+Q07343+Q08493); assay: Inhibition of PDE4 (unknown origin); assay type: protein assay
# [29] = target: Phosphodiesterase 7 (Homo sapiens, UniProt Q13946+Q9NP56); assay: Inhibition of PDE7 (unknown origin); assay type: protein assay
# [30] = target: 3',5'-cyclic-AMP phosphodiesterase 4B (Homo sapiens, UniProt Q07343); assay: Inhibition of recombinant human PDE4B catalytic domain extracted from baculovirus infected Sf9 cells using […] preincubated for 20 mins followed by 2 mins incubation at 65 degreeC and measured 10 mins after substrate addition by scintillation counter
# Chain of 3',5'-cyclic-AMP phosphodiesterase 4B (Q07343 whole entry, the tested form may be a part): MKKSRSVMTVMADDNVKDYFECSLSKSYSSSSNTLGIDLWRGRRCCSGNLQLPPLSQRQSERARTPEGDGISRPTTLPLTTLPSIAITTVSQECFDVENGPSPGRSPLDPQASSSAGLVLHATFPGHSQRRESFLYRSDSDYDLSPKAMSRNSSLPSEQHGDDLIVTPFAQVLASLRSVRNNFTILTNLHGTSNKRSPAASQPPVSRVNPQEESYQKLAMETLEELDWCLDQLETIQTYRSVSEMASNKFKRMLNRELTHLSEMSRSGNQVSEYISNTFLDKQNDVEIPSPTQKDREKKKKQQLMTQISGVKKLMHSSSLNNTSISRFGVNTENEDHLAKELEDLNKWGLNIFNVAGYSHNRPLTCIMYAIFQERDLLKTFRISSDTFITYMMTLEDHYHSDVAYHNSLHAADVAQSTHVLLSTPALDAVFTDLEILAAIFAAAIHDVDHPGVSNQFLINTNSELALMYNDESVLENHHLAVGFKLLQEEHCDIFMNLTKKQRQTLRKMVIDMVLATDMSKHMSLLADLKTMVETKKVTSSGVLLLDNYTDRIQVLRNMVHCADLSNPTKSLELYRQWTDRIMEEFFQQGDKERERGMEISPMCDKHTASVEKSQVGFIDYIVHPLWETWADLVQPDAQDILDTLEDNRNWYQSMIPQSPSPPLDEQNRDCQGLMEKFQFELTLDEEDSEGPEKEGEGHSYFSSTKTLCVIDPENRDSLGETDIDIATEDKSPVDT
# T1 sequence (Q08499 whole entry): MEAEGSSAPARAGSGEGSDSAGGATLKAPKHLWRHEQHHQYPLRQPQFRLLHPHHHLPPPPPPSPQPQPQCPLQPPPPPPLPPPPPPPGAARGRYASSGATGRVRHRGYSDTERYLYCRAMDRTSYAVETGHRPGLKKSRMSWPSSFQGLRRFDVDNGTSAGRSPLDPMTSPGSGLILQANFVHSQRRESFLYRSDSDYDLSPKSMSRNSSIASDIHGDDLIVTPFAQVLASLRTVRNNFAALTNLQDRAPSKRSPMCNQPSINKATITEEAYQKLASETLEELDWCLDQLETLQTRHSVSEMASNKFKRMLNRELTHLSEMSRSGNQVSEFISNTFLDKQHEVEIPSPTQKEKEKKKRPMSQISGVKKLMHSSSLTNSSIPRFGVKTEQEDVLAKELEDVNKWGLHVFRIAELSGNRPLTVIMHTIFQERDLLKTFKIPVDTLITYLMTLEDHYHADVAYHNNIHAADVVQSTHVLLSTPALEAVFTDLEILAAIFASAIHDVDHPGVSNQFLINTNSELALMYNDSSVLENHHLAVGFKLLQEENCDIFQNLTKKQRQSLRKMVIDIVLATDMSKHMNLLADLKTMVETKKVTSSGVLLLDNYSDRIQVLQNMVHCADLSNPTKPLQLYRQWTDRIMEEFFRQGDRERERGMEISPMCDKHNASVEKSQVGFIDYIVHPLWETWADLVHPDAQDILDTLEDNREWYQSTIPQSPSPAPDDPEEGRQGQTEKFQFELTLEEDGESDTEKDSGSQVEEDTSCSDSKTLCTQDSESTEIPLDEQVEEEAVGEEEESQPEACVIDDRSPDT
# Chain of High affinity cAMP-specific and IBMX-insensitive 3',5'-cyclic phosphodiesterase 8A (Homo sapiens) (O60658 whole entry): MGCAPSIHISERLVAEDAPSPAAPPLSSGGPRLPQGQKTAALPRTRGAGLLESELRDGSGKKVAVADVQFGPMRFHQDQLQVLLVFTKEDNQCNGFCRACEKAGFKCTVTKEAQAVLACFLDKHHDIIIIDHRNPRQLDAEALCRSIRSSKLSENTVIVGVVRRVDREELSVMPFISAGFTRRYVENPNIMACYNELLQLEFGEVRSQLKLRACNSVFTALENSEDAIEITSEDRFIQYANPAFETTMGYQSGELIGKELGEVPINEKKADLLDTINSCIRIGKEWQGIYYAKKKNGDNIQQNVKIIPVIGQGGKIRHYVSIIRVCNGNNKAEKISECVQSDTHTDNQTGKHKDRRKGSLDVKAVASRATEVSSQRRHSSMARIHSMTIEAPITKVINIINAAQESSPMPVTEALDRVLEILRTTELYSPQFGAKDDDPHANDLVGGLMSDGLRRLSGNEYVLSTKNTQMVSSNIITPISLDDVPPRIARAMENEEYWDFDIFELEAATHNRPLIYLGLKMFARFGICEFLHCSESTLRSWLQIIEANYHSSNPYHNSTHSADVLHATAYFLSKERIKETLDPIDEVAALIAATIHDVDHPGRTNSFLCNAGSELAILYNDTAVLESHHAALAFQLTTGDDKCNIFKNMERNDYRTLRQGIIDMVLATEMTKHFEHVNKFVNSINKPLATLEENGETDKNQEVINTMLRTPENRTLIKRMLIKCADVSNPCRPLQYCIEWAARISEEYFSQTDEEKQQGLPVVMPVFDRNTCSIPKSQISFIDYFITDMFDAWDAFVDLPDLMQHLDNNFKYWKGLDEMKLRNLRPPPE
# Chain of High affinity cGMP-specific 3',5'-cyclic phosphodiesterase 9A (Homo sapiens) (O76083 whole entry): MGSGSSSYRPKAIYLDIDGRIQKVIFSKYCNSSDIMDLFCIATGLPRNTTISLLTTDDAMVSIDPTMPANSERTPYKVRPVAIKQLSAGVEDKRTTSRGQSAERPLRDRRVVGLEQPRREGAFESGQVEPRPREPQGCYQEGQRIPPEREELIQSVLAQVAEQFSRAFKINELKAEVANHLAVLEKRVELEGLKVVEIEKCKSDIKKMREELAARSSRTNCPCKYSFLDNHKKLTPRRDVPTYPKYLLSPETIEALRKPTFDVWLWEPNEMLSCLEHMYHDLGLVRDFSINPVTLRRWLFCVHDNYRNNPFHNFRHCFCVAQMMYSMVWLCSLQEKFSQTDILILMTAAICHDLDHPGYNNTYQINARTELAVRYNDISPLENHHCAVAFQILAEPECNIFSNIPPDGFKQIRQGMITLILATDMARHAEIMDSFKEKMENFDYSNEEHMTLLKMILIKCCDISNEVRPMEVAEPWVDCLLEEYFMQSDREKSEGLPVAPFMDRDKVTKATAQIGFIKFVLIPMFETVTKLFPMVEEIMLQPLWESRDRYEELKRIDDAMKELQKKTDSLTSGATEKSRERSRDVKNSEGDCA
# Chain of High affinity 3',5'-cyclic-AMP phosphodiesterase 7A (Homo sapiens) (Q13946 whole entry): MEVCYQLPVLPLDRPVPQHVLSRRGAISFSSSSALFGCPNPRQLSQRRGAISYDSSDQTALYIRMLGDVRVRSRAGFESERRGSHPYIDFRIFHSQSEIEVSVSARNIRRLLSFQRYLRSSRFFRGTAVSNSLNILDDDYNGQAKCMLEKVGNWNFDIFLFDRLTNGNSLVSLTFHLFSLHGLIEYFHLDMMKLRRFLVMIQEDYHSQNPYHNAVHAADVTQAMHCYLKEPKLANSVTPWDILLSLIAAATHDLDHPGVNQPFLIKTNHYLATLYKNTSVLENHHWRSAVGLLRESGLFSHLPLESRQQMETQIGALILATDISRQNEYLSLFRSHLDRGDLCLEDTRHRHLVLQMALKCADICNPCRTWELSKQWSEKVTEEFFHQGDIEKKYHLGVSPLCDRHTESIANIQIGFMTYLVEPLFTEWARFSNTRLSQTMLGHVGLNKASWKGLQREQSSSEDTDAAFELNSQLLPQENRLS
# Chain of cGMP-inhibited 3',5'-cyclic phosphodiesterase 3B (Homo sapiens) (Q13370 whole entry, looked up): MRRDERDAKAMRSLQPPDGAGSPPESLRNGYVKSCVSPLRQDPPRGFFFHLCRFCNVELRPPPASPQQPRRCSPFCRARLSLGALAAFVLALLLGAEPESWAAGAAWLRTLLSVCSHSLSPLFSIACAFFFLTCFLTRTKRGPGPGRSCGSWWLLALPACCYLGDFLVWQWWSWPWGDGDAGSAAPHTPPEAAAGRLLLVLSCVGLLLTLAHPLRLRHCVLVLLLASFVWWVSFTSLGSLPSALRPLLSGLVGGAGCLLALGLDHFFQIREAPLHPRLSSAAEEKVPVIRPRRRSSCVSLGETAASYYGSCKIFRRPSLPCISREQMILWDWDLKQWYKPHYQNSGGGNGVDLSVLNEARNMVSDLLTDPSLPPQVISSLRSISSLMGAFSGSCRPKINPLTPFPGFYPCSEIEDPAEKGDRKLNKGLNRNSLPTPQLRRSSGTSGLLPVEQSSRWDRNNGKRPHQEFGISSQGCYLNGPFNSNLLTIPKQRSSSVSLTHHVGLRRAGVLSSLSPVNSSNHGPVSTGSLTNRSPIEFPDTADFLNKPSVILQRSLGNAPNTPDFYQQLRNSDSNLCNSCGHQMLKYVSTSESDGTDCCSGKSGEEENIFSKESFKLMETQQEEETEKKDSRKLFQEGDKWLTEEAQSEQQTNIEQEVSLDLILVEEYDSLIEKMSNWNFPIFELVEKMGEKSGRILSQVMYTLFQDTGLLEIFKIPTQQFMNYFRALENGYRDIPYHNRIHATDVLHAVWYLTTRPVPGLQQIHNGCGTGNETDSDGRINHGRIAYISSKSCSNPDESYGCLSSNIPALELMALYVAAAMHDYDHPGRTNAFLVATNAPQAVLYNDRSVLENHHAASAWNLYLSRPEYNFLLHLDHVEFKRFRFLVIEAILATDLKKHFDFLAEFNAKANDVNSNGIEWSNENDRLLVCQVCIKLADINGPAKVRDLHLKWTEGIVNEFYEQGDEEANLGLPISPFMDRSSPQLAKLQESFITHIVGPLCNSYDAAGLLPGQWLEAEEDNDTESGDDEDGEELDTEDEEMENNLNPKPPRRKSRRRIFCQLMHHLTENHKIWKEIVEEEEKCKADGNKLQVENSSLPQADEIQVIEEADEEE
SMILES,inhibition [1] [%],inhibition [2] [%],IC50 [3] [nM],also measured
COc1ccc(-c2cccc(C(C)=O)c2)c2cn(C3(C(=O)NCC(C)C)CC3)nc12,,4,> 1000,inhibition [4]: 7%
COc1ccc(-c2cc(C#N)cc(Cc3ccccc3)c2)c2cn(C3CC3)nc12,3,3,,
CCOc1cc([C@@H](CS(C)(=O)=O)N2C(=O)c3cccc(NC(C)=O)c3C2=O)ccc1OC,,,,Activity [5]: Toxic
O=C(Nc1c(Cl)cncc1Cl)c1ccc(OC(F)F)c(OCC2CC2)c1 [ROFLUMILAST],,,,Activity [6]: Active; Activity [7]: Active; Activity [8]: Active; Activity [9]: Active; Activity [10]: Active; Activity [11]: 7.3%; Activity [12]: Active; Activity [5]: Toxic
FC(F)Oc1ccc(-c2ccncc2)c2cn(C3CC3)nc12,34,77,19.9,Activity [13]: Non-Toxic; Ratio IC50 [14]: > 502; Ratio IC50 [15]: > 502; inhibition [16]: 5%; Activity [17]: Toxic; inhibition [18]: 4%; Ratio IC50 [19]: > 502; Ratio IC50 [20]: > 502; inhibition [21]: 13%; inhibition [22]: 8%
COc1ccc(N2CC(Oc3ccccc3)C2)c2cn(C3CC3)nc12,7,9,,
COc1ccc(-n2ccc3cc(C#N)ccc32)c2cn(C3CC3)nc12,18,16,,
COc1ccc(-c2cccc(C(C)=O)c2)c2cn(C3(C(=O)NC4CCCC4)CC3)nc12,,8,> 1000,inhibition [4]: 4%
COc1ccc(-c2ccc(OC)c3nn(C4CC4)cc23)cc1OC,3,4,,inhibition [3]: inactive
COc1ccc(-c2cccc(C#N)c2)c2cn(C3(C(=O)NCC(C)C)CC3)nc12,,18,380,inhibition [4]: 81%
COc1ccc(C2CNC(=O)C2)cc1OC1CCCC1 (stereo unspecified) [ROLIPRAM],,,,Activity [5]: Toxic
COc1ccc(-c2ccncc2)c2cn(C3CC3)nc12,46,89,10.1,Activity [13]: Non-Toxic; Ratio IC50 [14]: > 990; bioavailability [23]: 3.4%; Ratio IC50 [15]: > 990; inhibition [16]: 10%; inhibition [18]: 7%; Ratio IC50 [19]: > 990; LD50 at 336 h [24]: 400 mg/kg; Activity [25]: Non-Toxic; Ratio IC50 [20]: > 990; inhibition [21]: 13%; inhibition [22]: 11%
COc1cc(-c2ccc(OC)c3nn(C4CC4)cc23)cc(OC)c1OC,34,73,27.6,Ratio IC50 [26]: > 20
COc1ccc(-c2cccc(C#N)c2)c2cn(C3CC3)nc12,5,6,,
COc1ccc(-c2cccc(C(C)=O)c2)n2nc(C3(C(=O)NC4CCCC4)CC3)nc12,,,,IC50 [27]: < 500 nM
OCCN(CCO)c1nc(N2CCCCC2)c2nc(N(CCO)CCO)nc(N3CCCCC3)c2n1 [DIPYRIDAMOLE],,,,IC50 [28]: 2800 nM; IC50 [29]: 600 nM
COc1ccc(-c2ccc3[nH]c(=O)ccc3c2)n2cc(C(F)(F)F)nc12,,,,IC50 [30]: < 100 nM
CC(C)(O)C1CN(c2ccc(OC(F)F)c3nn(C4CC4)cc23)C1,4,4,,
FC(F)Oc1ccc(N2CCOCC2)c2cn(C3CC3)nc12,4,12,,

# More lines, main results first:
inhibition [1] [%],inhibition [2] [%],IC50 [3] [nM],SMILES,also measured
3,11,,FC(F)Oc1ccc(-c2ccnc(N3CCOCC3)c2)c2cn(C3CC3)nc12,
,2,,N#Cc1cccnc1Oc1cc(-c2ccc(OC(F)F)c3nn(C4CC4)cc23)cc2c1OCO2,
6,14,,FC(F)Oc1ccc(-c2ccncc2Cl)c2cn(C3CC3)nc12,
38,88,13.4,CC(=O)c1cccc(-c2ccc(OC(F)F)c3nn(C4CC4)cc23)c1,Activity [13]: Toxic
4,18,,CNc1cc(-c2ccc(OC(F)F)c3nn(C4CC4)cc23)ccn1,
12,38,,Fc1cc(-c2ccc(OC(F)F)c3nn(C4CC4)cc23)ccn1,
32,71,33.1,COc1ccc(-c2cccc(CN)c2)c2cn(C3CC3)nc12,
3,15,,Fc1cnccc1-c1ccc(OC(F)F)c2nn(C3CC3)cc12,
,24,,COc1cc(-c2ccc(OC(F)F)c3nn(C4CC4)cc23)cc2c1OCO2,
28,79,22.5,FC(F)Oc1ccc(-c2ccnc(Cl)c2)c2cn(C3CC3)nc12,
37,68,22.9,COc1ccc(-c2cccc(C(C)=O)c2)c2cn(C3CC3)nc12,
7,21,,COc1cc(-c2ccc(OC(F)F)c3nn(C4CC4)cc23)ccn1,
26,68,38.2,COc1ccc(-c2cccc(C(N)=O)c2)c2cn(C3CC3)nc12,
,4,,COc1cc(OC)cc(-c2ccc(OC(F)F)c3nn(C4CC4)cc23)c1,
,22,,NC(=O)c1cccnc1Oc1cc(-c2ccc(OC(F)F)c3nn(C4CC4)cc23)cc2c1OCO2,
5,14,,CC(C)CNC(=O)c1cc(-c2ccc(OC(F)F)c3nn(C4CC4)cc23)ccn1,
8,16,,O=C(NCc1ccccc1)c1cc(-c2ccc(OC(F)F)c3nn(C4CC4)cc23)ccn1,
